This note sets out measurements from patent US12448388B2, “PRMT5 inhibitors and uses thereof” (Gilead Sciences, Inc., priority 2023, dated 2025).

The structures appear in SMILES notation.

This assay has as its system HCT116 MTAP-deleted cell lines. Put plainly: Cell viability assay (CellTiter-Glo, 7 days), HCT116 MTAP-deleted. It is filed as cell-based. The following applies: Homo sapiens, HCT-116; cell viability assay, HCT116 MTAP-deleted; class symbols; read-out: CC50. The gist of the method: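 First, compounds are serially diluted in DMSO and dispensed into plates, which are frozen until seeding. Next, cells are added and incubated 7 days at 37 °C, 5% CO2, 90% humidity. Finally, CellTiter-Glo reagent is added and luminescence is measured to derive CC50.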
As for `Cc1ncc2c(N)nc3cnc(C(=O)N4C[C@@H](F)C[C@@H]5Oc6cc(C(F)(F)F)ccc6[C@@H]54)cc3n12` [Ff-656, (4-amino-1-methylimidazo[1,5-a]pyrido[3,4-e]pyrazin-8-yl)((3S,4aS,9bS)-3-fluoro-7-(trifluoromethyl)-3,4,4a,9b-tetrahydrobenzofuro[3,2-b]pyridin-1(2H)-yl)methanone], the CC50 was under 100 nM.

Turning to `Cc1ncc2c(N)nc3cc(F)c(C(=O)N4C[C@@H](F)C[C@@H]5Oc6cc(C(F)(F)F)ccc6[C@@H]54)cc3n12` [Ff-657, (4-amino-7-fluoro-1-methylimidazo[1,5-a]quinoxalin-8-yl)((3S,4aS,9bS)-3-fluoro-7-(trifluoromethyl)-3,4,4a,9b-tetrahydrobenzofuro[3,2-b]pyridin-1(2H)-yl)methanone], the CC50 was under 100 nM.

As to `Cc1ncn2c1c(N)nc1cc(F)c(C(=O)N3C[C@@H](F)C[C@@H]4Oc5cc(C(F)(F)F)ccc5[C@@H]43)cc12` [Ff-659, (4-amino-7-fluoro-3-methylimidazo[1,5-a]quinoxalin-8-yl)((3S,4aS,9bS)-3-fluoro-7-(trifluoromethyl)-3,4,4a,9b-tetrahydrobenzofuro[3,2-b]pyridin-1(2H)-yl)methanone], the CC50 is under 100 nM.

For `Nc1nc2cc(F)c(C(=O)N3C[C@@H](F)C[C@@H]4Oc5cc(OC(F)(F)F)ccc5[C@@H]43)cc2n2cncc12` [Ff-666, (4-amino-7-fluoroimidazo[1,5-a]quinoxalin-8-yl)((3S,4aS,9bS)-3-fluoro-7-(trifluoromethoxy)-3,4,4a,9b-tetrahydrobenzofuro[3,2-b]pyridin-1(2H)-yl)methanone], the CC50 was under 100 nM.

Regarding `Nc1nc2cc(F)c(C(=O)N3CCC4(CCc5ccccc54)C3)cc2n2cncc12` (stereo not shown) [Ff-670, (4-amino-7-fluoroimidazo[1,5-a]quinoxalin-8-yl)(2,3-dihydrospiro[indene-1,3′-pyrrolidin]-1′-yl)methanone], the CC50 fell in the range of 100 to 1000 nM.

`C[C@@H]1C[C@@H](N(C)C(=O)c2cc3c(cc2F)nc(N)c2cncn23)c2ccc(C(F)(F)F)cc21` [Ff-671, 4-amino-7-fluoro-N-methyl-N-((1R,3R)-3-methyl-5-(trifluoromethyl)-2,3-dihydro-1H-inden-1-yl)imidazo[1,5-a]quinoxaline-8-carboxamide]: the CC50 is under 100 nM.

For the compound `CN(C(=O)c1cc2c(cc1F)nc(N)c1cncn12)[C@@H]1COc2c1ccc(OC(F)F)c2F` [Ff-672, (S)-4-amino-N-(6-(difluoromethoxy)-7-fluoro-2,3-dihydrobenzofuran-3-yl)-7-fluoro-N-methylimidazo[1,5-a]quinoxaline-8-carboxamide], the CC50 was under 100 nM.

For `Nc1nc2cc(F)c(C(=O)N3CCC4(CC4)[C@@H]4Oc5cc(C(F)(F)F)ccc5[C@@H]43)cc2n2cncc12` [Ff-676, (4-amino-7-fluoroimidazo[1,5-a]quinoxalin-8-yl)((4aS,9bS)-7-(trifluoromethyl)-2,3,4a,9b-tetrahydro-1H-spiro[benzofuro[3,2-b]pyridine-4,1′-cyclopropan]-1-yl)methanone], the CC50 was under 100 nM.

As for `Nc1nc2cnc(C(=O)N3CCC4(CC4)[C@@H]4Oc5cc(C(F)(F)F)ccc5[C@@H]43)cc2n2cncc12` [Ff-677, (4-aminoimidazo[1,5-a]pyrido[3,4-e]pyrazin-8-yl)((4aS,9bS)-7-(trifluoromethyl)-2,3,4a,9b-tetrahydro-1H-spiro[benzofuro[3,2-b]pyridine-4,1′-cyclopropan]-1-yl)methanone], the CC50 was under 100 nM.

`Cc1ncc2c(N)nc3cnc(C(=O)N4CCC5(CC5)[C@@H]5Oc6cc(C(F)(F)F)ccc6[C@@H]54)cc3n12` [Ff-679, (4-amino-1-methylimidazo[1,5-a]pyrido[3,4-e]pyrazin-8-yl)((4aS,9bS)-7-(trifluoromethyl)-2,3,4a,9b-tetrahydro-1H-spiro[benzofuro[3,2-b]pyridine-4,1′-cyclopropan]-1-yl)methanone]: the half-maximal cytotoxic concentration (CC50) is under 100 nM.

For `Cc1ncn2c1c(N)nc1cnc(C(=O)N3CCC[C@@H]4Oc5cc(-c6cnn(C(F)(F)F)c6)ccc5[C@@H]43)cc12` [Ff-683, (4-amino-3-methylimidazo[1,5-a]pyrido[3,4-e]pyrazin-8-yl)((4aS,9bS)-7-(1-(trifluoromethyl)-1H-pyrazol-4-yl)-3,4,4a,9b-tetrahydrobenzofuro[3,2-b]pyridin-1(2H)-yl)methanone], the CC50 was under 100 nM.

In the case of `C[C@H]1CN(C(=O)c2cc3c(cc2F)nc(N)c2cncn23)[C@H]2c3ccc(C(F)(F)F)c(F)c3C[C@H]2O1` [Ff-690, (4-amino-7-fluoroimidazo[1,5-a]quinoxalin-8-yl)((2S,4aS,9aR)-8-fluoro-2-methyl-7-(trifluoromethyl)-2,3,9,9a-tetrahydroindeno[2,1-b][1,4]oxazin-4(4aH)-yl)methanone], the CC50 is under 100 nM.

Turning to `Nc1nc2cc(F)c(C(=O)N3CCO[C@@H]4Cc5c(ccc(C(F)(F)F)c5F)[C@@H]43)cc2n2cncc12` [Ff-691, (4-amino-7-fluoroimidazo[1,5-a]quinoxalin-8-yl)((4aS,9aR)-8-fluoro-7-(trifluoromethyl)-2,3,9,9a-tetrahydroindeno[2,1-b][1,4]oxazin-4(4aH)-yl)methanone], the CC50 lay within 100 to 1000 nM.

Regarding `Cc1ncc2c3cc(C(=O)N(Cc4ccc(C(F)(F)F)cn4)[C@H](C)c4ncccn4)c(F)cc3nc(N)n12` [Fg-17, (R)-5-amino-8-fluoro-3-methyl-N-(1-(pyrimidin-2-yl)ethyl)-N-((5-(trifluoromethyl)pyridin-2-yl)methyl)imidazo[1,5-c]quinazoline-9-carboxamide], the CC50 is under 100 nM.

Regarding `Cc1ncn2c1c(N)nc1cc(Cl)c(C(=O)N3CCC[C@@H]4Oc5cc(C(F)(F)F)ncc5[C@@H]43)cc12` [Fg-19, (4-amino-7-chloro-3-methylimidazo[1,5-a]quinoxalin-8-yl)((4aS,9bS)-7-(trifluoromethyl)-3,4,4a,9b-tetrahydrofuro[3,2-b:4,5-c′]dipyridin-1(2H)-yl)methanone], the CC50 is under 100 nM.

For the compound `C[C@@H]1C[C@@H]2Oc3cc(C(F)(F)F)ncc3[C@@H]2N(C(=O)c2cc3c(cc2F)nc(N)c2cncn23)C1` [Fg-20, (4-amino-7-fluoroimidazo[1,5-a]quinoxalin-8-yl)((3R,4aS,9bS)-3-methyl-7-(trifluoromethyl)-3,4,4a,9b-tetrahydrofuro[3,2-b:4,5-c′]dipyridin-1(2H)-yl)methanone], the cytotoxic concentration (CC50) was under 100 nM.

Turning to `Cc1ncn2c1c(N)nc1cc(F)c(C(=O)N3C[C@H](C)C[C@@H]4Oc5cc(C(F)(F)F)ncc5[C@@H]43)cc12` [Fg-21, (4-amino-7-fluoro-3-methylimidazo[1,5-a]quinoxalin-8-yl)((3R,4aS,9bS)-3-methyl-7-(trifluoromethyl)-3,4,4a,9b-tetrahydrofuro[3,2-b:4,5-c′]dipyridin-1(2H)-yl)methanone], the CC50 is under 100 nM.

For `Nc1nc2cc(F)c(C(=O)N3CCO[C@@H]4Cc5cc(OC(F)F)ccc5[C@@H]43)cc2n2cncc12` [Fg-24, (4-amino-7-fluoroimidazo[1,5-a]quinoxalin-8-yl)((4aS,9aR)-7-(difluoromethoxy)-2,3,9,9a-tetrahydroindeno[2,1-b][1,4]oxazin-4(4aH)-yl)methanone], the CC50 is under 100 nM.

Take `Nc1nc2cc(F)c(C(=O)N3CCC[C@@H]4Oc5cc(F)ccc5[C@@H]43)cc2n2cncc12` [Fg-25, (4-amino-7-fluoroimidazo[1,5-a]quinoxalin-8-yl)((4aS,9bS)-7-fluoro-3,4,4a,9b-tetrahydrobenzofuro[3,2-b]pyridin-1(2H)-yl)methanone]: the CC50 was under 100 nM.

With `Cc1ncn2c1c(N)nc1cc(F)c(C(=O)N3CCC[C@@H]4Oc5cc(F)ccc5[C@@H]43)cc12` [Fg-26, (4-amino-7-fluoro-3-methylimidazo[1,5-a]quinoxalin-8-yl)((4aS,9bS)-7-fluoro-3,4,4a,9b-tetrahydrobenzofuro[3,2-b]pyridin-1(2H)-yl)methanone], the CC50 is under 100 nM.

In the case of `Cc1ncn2c1c(N)nc1cnc(C(=O)N3CC(C)(C)CC4Oc5cc(OC(F)(F)F)ccc5C43)cc12` (stereo not shown) [Fg-27, (4-amino-3-methylimidazo[1,5-a]pyrido[3,4-e]pyrazin-8-yl)(3,3-dimethyl-7-(trifluoromethoxy)-3,4,4a,9b-tetrahydrobenzofuro[3,2-b]pyridin-1(2H)-yl)methanone], the cytotoxic concentration (CC50) is 100 to 1000 nM.

Consider `Nc1nc2cnc(C(=O)N3CCC[C@@H]4Oc5cc(Cl)ccc5[C@@H]43)cc2n2cncc12` [Fg-28, (4-aminoimidazo[1,5-a]pyrido[3,4-e]pyrazin-8-yl)((4aS,9bS)-7-chloro-3,4,4a,9b-tetrahydrobenzofuro[3,2-b]pyridin-1(2H)-yl)methanone], for which the CC50 was under 100 nM.

On to `Cc1ncn2c1c(N)nc1cnc(C(=O)N3CCC[C@@H]4Oc5cc(OC(F)(F)F)ccc5[C@@H]43)cc12` [Fg-30, (4-amino-3-methylimidazo[1,5-a]pyrido[3,4-e]pyrazin-8-yl)((4aS,9bS)-7-(trifluoromethoxy)-3,4,4a,9b-tetrahydrobenzofuro[3,2-b]pyridin-1(2H)-yl)methanone], for which the cytotoxic concentration (CC50) is under 100 nM.

Turning to `Cc1ncn2c1c(N)nc1cnc(C(=O)N3CCC[C@@H]4Oc5cc(OC(F)(F)F)c(F)cc5[C@@H]43)cc12` [Fg-32, (4-amino-3-methylimidazo[1,5-a]pyrido[3,4-e]pyrazin-8-yl)((4aS,9bS)-8-fluoro-7-(trifluoromethoxy)-3,4,4a,9b-tetrahydrobenzofuro[3,2-b]pyridin-1(2H)-yl)methanone], the CC50 was under 100 nM.

On to `Cc1ncn2c1c(N)nc1cc(F)c(C(=O)N3CC[C@H]4C[C@@H]3c3ccc(C(F)(F)F)nc3O4)cc12` [Fg-33, (4-amino-7-fluoro-3-methylimidazo[1,5-a]quinoxalin-8-yl)((2S,6R)-9-(trifluoromethyl)-3,4-dihydro-2H-2,6-methanopyrido[2,3-b][1,5]oxazocin-5(6H)-yl)methanone], for which the CC50 was under 100 nM.

By CC50 is commonly meant the concentration at which the toxic effect on the cells reaches its halfway point.
